Data on 30 molecules can be found in patent US5840895A, “Triazole intermediates for tricyclic benzazepine and benzothiazepine derivatives” (Meiji Seika Kabushiki Kaisha, priority 1993, dated 1998).

Assay [1] has as its system histamine releasing reaction. Nature of the assay: Test of suppressing histamine releasing reaction (abdominal cavity cells of rats sensitised with anti-DNP-As serum, stimulated with DNP-As). The assay is classed as cell-based, rat (male Wister). As to conditions: Rattus norvegicus; cells 10^5 cell/ml stimulated with 1 μg/ml DNP-As; test compounds 10^-5 -10^-10 M; read-out: IC50 (suppression of histamine releasing reaction). On the procedure: Test of suppressing histamine releasing reaction
Rat anti-dinitrophenylated ascaris protein (referred to hereinafter as DNP-As) serum was prepared according to the method described by Tada, T. and Okumura, K., J. Immun., 106 (4), 1971. Briefly, 1×10^10 of inviable pertussis and 1 mg of DNP-As were administered subcutaneously to the paw of female Brown Norway rats having a body weight of 200 g. After five days, 0.5 mg of DNP-As was further administered intramuscularly to the rear of the animals. Blood samples were taken after three days of the administration to prepare anti-serum.
A 1 ml portion of the serum diluted four times with physiological saline was administered intraperitoneally to male Wister rats. After two days, abdominal cavity was rinsed with phosphate buffer to recover the cells within the abdominal cavity. After the cell concentration was adjusted to 10^5 cell/ml, the cells were stimulated with 1 μg/ml of DNP-As. The amount of histamine released into the supernatant was measured according to the method described by Shore, P. A., Burkhalter, A. H. and Chon, V. H. Jr., J. Pharm. Exp. Ther., 127, 182-186 (1959).
A dose for suppressing 50% of the histamine releasing reaction, i.e., IC50 value, was calculated from the amounts of histamine released in the group treated with the test compounds in the molar concentrations (M) of 10^-5 -10^-10 and in the control group. The IC50 value as the suppressing effect of the drugs is shown in Table 6 with the IC50 value of sodium chromoglycic acid selected as the control compound.

Assay [2] has as its system allergic edema reaction at paw. Nature of the assay: Test for suppressing immediate and delayed allergic reaction (allergic edema reaction at paw, DNP-OA). The assay is classed as in vivo, rat (male Wister). As to conditions: Rattus norvegicus, oral; for inhibition in vivo at 30 mg/kg: dose: 30 mg/kg of body weight. On the procedure:
Test for suppressing immediate and delayed allergic reaction
1×10^10 of inviable pertussis and 1 mg of dinitrophenylated ovalbumin (DNP-OA) were administered subcutaneously to the three paws except the right hind paw of male Wister rats having a body weight of 200 g. After 10 days, 5 μg of DNP-OA was further administered subcutaneously to the right hind paw of the animals to induce the allergic edema reaction at paw. The allergy suppressing effect of the test compounds was examined with reference to the edema volumes after 30 minutes and 8 hours of the induction of the allergic reaction as the immediate and delayed allergic reactions, respectively.
[…] On the other hand, only a solution of 0.25% Tween 80 was orally administered to rats as the untreated control, and 100 mg/kg of sodium chromoglycate subcutaneously or orally to rats as the positive control.
The rate of suppressing the allergic edema reaction at paw was calculated from the following equation.
Suppression rate of the allergic edema reaction at paw
A is an average edema volume in the control, and
B is an average edema volume in the drug treated group.

The mark [3] stands for this setting: 0.5 h, 30 minutes after induction, read-out: Suppressing Rate, Immediate Reaction.
Setting [4] is: 8 hours after induction, read-out: Suppressing Rate, Slow reaction.
[5] abbreviates: 0.5 h, edema volume 30 minutes after induction, read-out: Suppressing Rate, Immediate Reaction.
[6] abbreviates: edema volume 8 hours after induction, read-out: Suppressing Rate, Slow reaction.

The structures appear in SMILES notation. Where two headings read alike, the source gives them in different places.

Usually IC50 stands for the concentration needed to halve the response being measured. In the case of `N#CC=Cc1ccc2c(=O)c3[nH]nnc3c(=O)[nH]c2c1` (mixture of isomers) [Example 19, 3:1 mixture of 7-(2-cyano-(E)-ethenyl)-4(5H),10-dioxo-1H-1,2,3-triazolo[4,5-c][l]benzazepine and 7-(2-cyano-(Z)-ethenyl)-4(5H),10-dioxo-1H-1,2,3-triazolo[4,5-c][l]benzazepine], the IC50 in assay [1] is 4.3 nM.

For `O=c1[nH]c2ccccc2c(=O)c2[nH]nnc12` [Example 1, 4(5H),10-dioxo-1H-1,2,3-triazolo[4,5-c][l]benzazepine], the IC50 in assay [1] came out at 12 nM. The inhibition in vivo at 30 mg/kg turned out to be 56.4% in assay [2] (setting [3]) and 24.5% in assay [2] (setting [4]).

In the case of `Cc1cccc2c(=O)c3[nH]nnc3c(=O)[nH]c12` [Example 3, 6-methyl-4(5H),10-dioxo-1H-1,2,3-triazolo[4,5-c][l]benzazepine], the IC50 in assay [1] was 37 nM. Moreover, the figures for the inhibition in vivo at 30 mg/kg in assay [2] (setting [3]) and in assay [2] (setting [4]) were 46.6% and 24.2%, respectively.

Take `Cc1ccc2c(=O)c3[nH]nnc3c(=O)[nH]c2c1` [Example 4, 7-methyl-4(5H),10-dioxo-1H-1,2,3-triazolo[4,5-c][l]benzazepine]: the half-maximal inhibitory concentration (IC50) in assay [1] came out at 2.3 nM. For the same molecule, the results for the inhibition in vivo at 30 mg/kg in assay [2] (setting [3]) and in assay [2] (setting [4]) were 70.5% and 57.7%, respectively.

Turning to `Cc1ccc2[nH]c(=O)c3nn[nH]c3c(=O)c2c1` [Example 5, 8-methyl-4(5H),10-dioxo-1H-1,2,3-triazolo[4,5-c][l]benzazepine], the half-maximal inhibitory concentration (IC50) in assay [1] was found to be 13 nM. The inhibition in vivo at 30 mg/kg amounted to 48.7% in assay [2] (setting [3]) and 28.9% in assay [2] (setting [4]).

Take `CCc1ccc2c(=O)c3[nH]nnc3c(=O)[nH]c2c1` [Example 12, 7-ethyl-4(5H),10-dioxo-1H-1,2,3-triazolo[4,5-c][l]benzazepine]: the IC50 in assay [1] is 6.2 nM. Moreover, the inhibition in vivo at 10 mg/kg in assay [2] (setting [5]) came to 59%; in assay [2] (setting [6]), 53%.

With `COC(=O)CCc1ccc2c(=O)c3[nH]nnc3c(=O)[nH]c2c1` [Example 17, 7-(2-methoxycarbonylethyl)-4(5H),10-dioxo-1H-1,2,3-triazolo[4,5-c][l]benzazepine], the half-maximal inhibitory concentration (IC50) in assay [1] is 4.1 nM.

In the case of `O=C(O)/C=C/c1ccc2c(=O)c3[nH]nnc3c(=O)[nH]c2c1` [Example 18], in assay [1], the IC50 came out at 4.5 nM.

For the molecule `CC(=O)COc1ccc2c(=O)c3[nH]nnc3c(=O)[nH]c2c1` [Example 34, 7-acetonyloxy-4(5H),10-dioxo-1H-1,2,3-triazolo[4,5-c][l]benzazepine], the IC50 in assay [1] was determined as 3.5 nM.

For the molecule `COc1ccc(C(=O)COc2ccc3c(=O)c4[nH]nnc4c(=O)[nH]c3c2)cc1` [Example 37, 7-(4-methoxyphenacyloxy)-4(5H),10-dioxo-1H-1,2,3-triazolo[4,5-c][l]benzazepine], in assay [1], the IC50 worked out at 7.5 nM.

`Cc1cc2[nH]c(=O)c3nn[nH]c3c(=O)c2cc1C` [Example 44, 7,8-dimethyl-4(5H),10-dioxo-1H-1,2,3-triazolo[4,5-c][l]benzazepine]: the IC50 in assay [1] turned out to be 8.5 nM.

In the case of `COc1cc2c(=O)c3[nH]nnc3c(=O)[nH]c2cc1C` [Example 45, 8-methoxy-7-methyl-4(5H),10-dioxo-1H-1,2,3-triazolo[4,5-c][l]benzazepine], in assay [1], the IC50 was 2.9 nM.

On to `Cc1ccc2c(=O)c3[nH]nnc3c(=O)[nH]c2c1` [Example 46, 7-methyl-4(5H),10-dioxo-1H-1,2,3-triazolo[4,5-c][l]benzazepine], for which the inhibition in vivo at 10 mg/kg in assay [2] (setting [5]) is 64%; in assay [2] (setting [6]), 68%.

As for `COC(=O)/C(C)=C/c1ccc2c(=O)c3[nH]nnc3c(=O)[nH]c2c1` [Example 50], the half-maximal inhibitory concentration (IC50) in assay [1] is 3.6 nM.

Regarding `COc1ccc(C(=O)/C=C/c2ccc3c(=O)c4[nH]nnc4c(=O)[nH]c3c2)cc1` [Example 51, 7-(2-(4-methoxybenzoyl)-(E)-ethenyl)-4(5H1), 10-dioxo-1H-1,2,3-triazolo[4,5-c][l]benzazepine], the IC50 in assay [1] worked out at 7.8 nM.

`O=C(/C=C/c1ccc2c(=O)c3[nH]nnc3c(=O)[nH]c2c1)NCc1ccccc1` [Example 53, 7-(2-(N-benzylcarbamoyl)-(E)-ethenyl)-4(5H),10-dioxo-1H-1,2,3-triazolo[4,5-c][l]benzazepine]: the IC50 in assay [1] amounted to 4.4 nM.

For `O=C(/C=C/c1ccc2c(=O)c3[nH]nnc3c(=O)[nH]c2c1)NCc1ccccn1` [Example 54, 4(5H),10-dioxo-7-(2-(N-(2-pyridylmethyl)carbamoyl)-(E)-ethenyl)-1H-1,2,3-triazolo[4,5-c][l]benzazepine], in assay [1], the 50% inhibitory concentration (IC50) was determined as 3.6 nM.

Regarding `O=C(/C=C/c1ccc2c(=O)c3[nH]nnc3c(=O)[nH]c2c1)Nc1nn[nH]n1` [Example 56, 4(5H),10-dioxo-7-(2-(N-(1H-tetrazol-5-yl)carbamoyl)-(E)-ethenyl)-1H-1,2,3-triazolo[4,5-c][l]benzazepine], the IC50 in assay [1] came out at 4.7 nM.

As for `O=c1[nH]c2cc(C=NO)ccc2c(=O)c2[nH]nnc12` [Example 57, 7-(hydroxyimino)methyl-4(5H),10-dioxo-1H-1,2,3-triazolo[4,5-c][l]benzazepine], the IC50 in assay [1] was 2.4 nM.

Consider `CON=Cc1ccc2c(=O)c3[nH]nnc3c(=O)[nH]c2c1` [Example 58, 7-(methoxyimino)methyl-4(5H),10-dioxo-1H-1,2,3-triazolo[4,5-c][l]benzazepine], for which the half-inhibitory concentration (IC50) in assay [1] stood at 8.1 nM.

Turning to `CS(=O)(=O)NCc1ccc2c(=O)c3[nH]nnc3c(=O)[nH]c2c1` [Example 68, 7-(N-methanesulfonylaminomethyl)-4(5H),10-dioxo-1H-1,2,3-triazolo[4,5-c][l]benzazepine], the IC50 in assay [1] was found to be 3.5 nM.

In the case of `O=c1[nH]c2cc(CNS(=O)(=O)c3ccc(F)cc3)ccc2c(=O)c2[nH]nnc12` [Example 70, 7-(N-(4-fluorobenzenesulfonyl)aminomethyl)-4(5H),10-dioxo-1H-1,2,3-triazolo[4,5-c][l]benzazepine], the concentration for half-maximal inhibition (IC50) in assay [1] is 6.1 nM.

With `COc1ccccc1C(=O)COc1ccc2c(=O)c3[nH]nnc3c(=O)[nH]c2c1` [Example 73, 7-(2-methoxyphenacyloxy)-4(5H),10-dioxo-1H-1,2,3-triazolo[4,5-c][l]benzazepine], in assay [1], the IC50 turned out to be 4.8 nM.

Turning to `O=C(COc1ccc2c(=O)c3[nH]nnc3c(=O)[nH]c2c1)c1ccc(Cl)cc1` [Example 74, 7-(4-chlorophenacyloxy)-4(5H),10-dioxo-1H-1,2,3-triazolo[4,5-c][l]benzazepine], the IC50 in assay [1] amounted to 4.5 nM.

For `O=c1[nH]c2cc(OCCCOc3ccccc3)ccc2c(=O)c2[nH]nnc12` [Example 75, 4(5H),10-dioxo-7-(3-phenoxypropoxy)-IH-1,2,3-triazolo[4,5-c][l]benzazepine], the half-maximal inhibitory concentration (IC50) in assay [1] was found to be 4 nM.

Turning to `O=c1[nH]c2cc(OCCOc3ccccc3)ccc2c(=O)c2[nH]nnc12` [Example 78, 4(5H),10-dioxo-7-(2-phenoxyethoxy)-1H-1,2,3-triazolo[4,5-c][l]benzazepine], in assay [1], the IC50 was 3.6 nM.

Consider `O=C(CCc1ccccc1)COc1ccc2c(=O)c3[nH]nnc3c(=O)[nH]c2c1` [Example 79, 4(5H),10-dioxo-7-(2-oxo-4-phenylbutoxy)-1H-1,2,3-triazolo[4,5-c][l]benzazepine], for which the 50% inhibitory concentration (IC50) in assay [1] is 3.6 nM.

For the molecule `O=c1[nH]c2cc(OCC(O)CCc3ccccc3)ccc2c(=O)c2[nH]nnc12` (centres unmarked) [Example 80, 7-(2-hydroxy-4-phenylbutoxy)-4(5H),10-dioxo-1H-1,2,3-triazolo[4,5-c][l]benzazepine], the IC50 in assay [1] is 4.7 nM.

`O=c1[nH]c2cc(OCCCN3CCN(Cc4ccccc4)CC3)ccc2c(=O)c2[nH]nnc12` [Example 81, 7-(3-(4-benzyl-1-piperazinyl)propoxy)-4(5H),10-dioxo-1H-1,2,3-triazolo[4,5-c][l]benzazepine]: the IC50 in assay [1] was 3.8 nM.

Consider `COc1ccccc1C(=O)COc1ccc2[nH]c(=O)c3nn[nH]c3c(=O)c2c1` [Example 87, 8-(2-methoxyphenacyloxy)-4(5H),10-dioxo-1H-1,2,3-triazolo[4,5-c][l]benzazepine], for which the 50% inhibitory concentration (IC50) in assay [1] was found to be 7.4 nM.
